The results in this text go back to US20140275257A1, “N-ACETYL CYSTEINE COMPOSITIONS IN THE TREATMENT OF SYSTEMIC LUPUS ERYTHEMATOSUS” (Foundation for the State University of New York, priority 2013, published 2014).

One test deals with DN T cells. Kind of test: Spontaneous and CD3/CD28-induced apoptosis of T cells (annexin V/PrI flow cytometry). The format is in vivo, human. The conditions noted are these: NAC-treated patients; for CD3/CD28-induced apoptosis: baseline 16.0±1.6%. From the text: Cell viability was monitored with annexin V conjugated to fluorescein isothiocyanate (annexin V-FITC conjugate), annexin V conjugated to phycoerythrin (annexin V-PE conjugate), or annexin V conjugated to fluorochrome Cy5 (Annexin V-Cy5 conjugate) matched with emission spectra of propidium iodide (PrI) to detect Annexin V+/PrI− apoptotic cells. Mitochondrial transmembrane potential (ΔΨm) was monitored with mitochondrial potentiometric dyes such as 3,3′-dihexyloxacarbocyanine iodide ((DiOC6), using an excitation wavelength of […] and emission at 488 nm, recorded at 525 nm in the FL-1 (green fluorescence) channel); and tetramethylrhodamine, methyl ester ((TMRM), using an excitation wavelength of […], and emission at 543 nm, recorded at 567 nm in the FL-2 (yellow/orange fluorescence) channel), potential-insensitive mitochondrial dyes such as MitoTracker Green-FM (MTG, 100 nM; excitation: 490 nm, emission: 516 nm recorded in FL-1) or nonyl acridine orange (NAO, 50 nM; excitation: 490 nm, emission: 540 nm recorded in FL-1), superoxide sensing hydroethidine (HE, 1 μM) and H2O2-sensing dichlorofluorescein diacetate (DCF-DA, 1 μM), nitric oxide sensor 4-amino-5-methylamino-2′,7′-difluoroflourescein diacetate (DAF-FM, 1 μM, excitation: 495, emission: 515 nm recorded in FL-1), or cytosolic probes (Fluo-3, 1 μM, excitation: 506 nm, emission: 526 nm recorded in FL-1) and mitochondrial Ca^2+-sensitive fluorescent probes (Rhod-2, 1 μM), respectively.
NO production (FIG. 3D: DAF-FM fluorescence), and mitochondrial mass were measured in T cell subsets following CD3/CD28 stimulation for 16 h (FIG. 3E: NAO fluorescence). FIG. 3F: Spontaneous apoptosis rate was enumerated by the percentage of Ann V+/PrI− T cells after culture for 16 h. FIG. 3G: Activation-induced apoptosis was assessed following CD3/CD28 co-stimulation for 16 h. Visits: visit 1, before 1st NAC dose; visit 2, after 1-month treatment; visit 3, after 2-month treatment; visit 4, after 3-month treatment; visit 5, after 1-month washout.
Unstimulated cells and cells stimulated with CD3/CD28 for 16 h were examined and cell death pathway selection in T cells was measured by concurrent staining with annexin V-Alexa 647 and propidium iodide (PrI) as well as cell type-specific antigens. T-cell subsets were analyzed by staining with antibodies to CD4, CD8, and CD25. B cells were identified by CD 19 staining

Another test relates to SLE patients. Kind of test: Fatigue Assessment Scale (FAS) in NAC pilot study. The conditions noted are these: for FAS: all NAC doses combined, visit 1 28.5. The test is classed as in vivo, human. An excerpt: Fatigue, a nonspecific symptom that is highly prevalent among patients in primary care, is not only an important component of many diseases or disorders, including SLE, but can also play a substantial role in healthy populations. Fatigue is considered the most disabling symptom in a majority of SLE patients. (Krupp, L. B. et al., “A study of fatigue in systemic lupus erythematosus,” J. Rheumatol., 17: 1450-1452 (1990)). The Fatigue Assessment Scale (FAS) is a 10-item unidimensional subjective fatigue scale that measures chronic fatigue. For each statement, one chooses one out of five answer categories varying from “never” to “always: 1=never; 2=sometimes; 3=regularly; 4=often; and 5=always. (Michielsen, H. J. et al., “Psychometric qualities of a brief self-rated fatigue measure: The Fatigue Assessment Scale,” Journal of Psychosomatic Research, 54: 345-352 (2003)).
Fatigue was assessed by using a validated Fatigue Assessment Scale (FAS), a self-questionnaire that provides a subjective measurement of fatigue severity and has shown to have a high degree of internal consistency, validity, and sensitivity to changes in clinical condition, as described in Michielsen, H. J. et al., “Psychometric qualities of a brief self-rated fatigue measure: The Fatigue Assessment Scale,” J. Psychosom. Res., 54(4): 345-352 (2003), the entire content of which is incorporated by reference herein.
Lupus disease activity was measured by SLEDAI and BILAG and fatigue was evaluated by FAC at baseline (visit 1) as well as monthly during a 3-month intervention (visits 2-4) and after a 1-month washout period (visit 5).

SMILES strings stand for the structures.

As for `CC(=O)N[C@@H](CS)C(=O)O` [NAC, N-acetyl-L-cysteine], the CD3/CD28-induced apoptosis stood at 25.4±2.6% in the test with DN T cells (after 2 months, p=0.0006); 23.5±2.1% in the test on DN T cells (after 3 months, p=0.0004); 22.7±2.6% with DN T cells (after 4 months, p=0.0313). The “Spontaneous apoptosis rate of DN T cells” value in the test with DN T cells (after 4 months, baseline 10.1±1.3%, p=0.035) is 15.2±2.3%. Moreover, in the test with SLE patients (NAC dose 1 (1.2 g/day)), the “effect on SLE disease activity, FAS” value was “did not influence”. In addition, the “effect on FAS” value in the test with SLE patients (NAC dose 2 (2.4 g/day) and dose 3 (4.8 g/day), after 2 months (p=0.002) and 3 months (p=0.004)) is recorded as “reduced”. Moreover, the “effect on FAS relative to placebo (mixed model analysis)” value with SLE patients (NAC dosing group 2, XTMIXED z=−2.08, p=0.038) is “reduction”. For the same compound, the FAS in the test on SLE patients (visit 3 (2 months), p=0.0006) is on record as 24.1; in the test with SLE patients (visit 4 (3 months), p=0.005) it was 23.9; in the test on SLE patients (visit 5 (after 1 month washout), p=0.034), 24.8.
